Results published in publication PMC4448990 (Pharmacology Research & Perspectives, 2015).

Assays:
[1] = target: Dopamine, D4.2 (h) (Homo sapiens, UniProt P21917, DEL265-296); test: in vitro selectivity profile; assay type: binding
[2] = target: hCav2.1 calcium channels (Homo sapiens, UniProt O00555); test: whole-cell patch clamp, hCav2.1 in CHO cells; assay type: cell-based; conditions: IC50, hCav2.1 calcium peak currents, 0.3–1000 μmol/L, holding potential −80 mV
[3] = target: Norepinephrine transporter (h) (Homo sapiens, UniProt P23975); test: in vitro selectivity profile; assay type: binding
[4] = target: Kinase, protein, MAPK3 (ERK1, P44MAPK) (h) (Homo sapiens, UniProt P27361); test: in vitro selectivity profile; assay type: biochemical
Kinase, protein, MAPK3 (ERK1, P44MAPK) (h), sequence (P27361 whole entry): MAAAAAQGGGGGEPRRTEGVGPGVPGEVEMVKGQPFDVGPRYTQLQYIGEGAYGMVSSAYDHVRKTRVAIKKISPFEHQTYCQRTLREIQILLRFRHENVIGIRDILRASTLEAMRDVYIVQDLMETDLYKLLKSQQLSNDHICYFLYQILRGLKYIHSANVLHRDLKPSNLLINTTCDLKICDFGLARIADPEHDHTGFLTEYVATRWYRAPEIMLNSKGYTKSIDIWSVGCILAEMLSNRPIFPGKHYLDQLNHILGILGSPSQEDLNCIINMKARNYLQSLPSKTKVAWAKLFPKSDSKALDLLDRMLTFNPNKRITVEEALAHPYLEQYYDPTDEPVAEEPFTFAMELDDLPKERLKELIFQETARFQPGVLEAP

[5] = target: Serotonin, 5HT6 (h) (Homo sapiens, UniProt P50406); test: in vitro selectivity profile; assay type: binding
[6] = target: Neurotensin (h) (Homo sapiens, UniProt P30989); test: in vitro selectivity profile; assay type: binding
[7] = eslicarbazepine; ref Bialer and Soares-da-Silva [2012]; cited from earlier work
[8] = system: Glutamate, NMDA, phencyclidine site; test: in vitro selectivity profile; assay type: binding; conditions: eslicarbazepine 400 μmol/L
[9] = target: Serotonin, 5HT7 (h) (Homo sapiens, UniProt P34969); test: in vitro selectivity profile; assay type: binding
[10] = system: Melatonin, nonselective; test: in vitro selectivity profile; assay type: binding; conditions: eslicarbazepine 400 μmol/L
[11] = target: Serotonin, 5HT1A (h) (Homo sapiens, UniProt P08908); test: in vitro selectivity profile; assay type: binding
Serotonin, 5HT1A (h), sequence (P08908 whole entry): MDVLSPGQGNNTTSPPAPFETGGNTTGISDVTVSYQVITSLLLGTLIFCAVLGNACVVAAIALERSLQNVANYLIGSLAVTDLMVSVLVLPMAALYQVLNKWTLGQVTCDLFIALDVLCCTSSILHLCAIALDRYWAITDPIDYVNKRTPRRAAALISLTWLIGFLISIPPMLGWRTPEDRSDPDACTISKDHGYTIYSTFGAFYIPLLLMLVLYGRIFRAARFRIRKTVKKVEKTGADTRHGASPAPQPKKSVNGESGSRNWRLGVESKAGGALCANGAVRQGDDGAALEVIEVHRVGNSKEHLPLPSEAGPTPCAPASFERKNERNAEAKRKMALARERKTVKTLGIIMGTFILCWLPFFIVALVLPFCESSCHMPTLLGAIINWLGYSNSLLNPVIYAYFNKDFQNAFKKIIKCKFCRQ

[12] = target: Serotonin, 5HT2A (h) (Homo sapiens, UniProt P28223); test: in vitro selectivity profile; assay type: binding
Serotonin, 5HT2A (h), sequence (P28223 whole entry): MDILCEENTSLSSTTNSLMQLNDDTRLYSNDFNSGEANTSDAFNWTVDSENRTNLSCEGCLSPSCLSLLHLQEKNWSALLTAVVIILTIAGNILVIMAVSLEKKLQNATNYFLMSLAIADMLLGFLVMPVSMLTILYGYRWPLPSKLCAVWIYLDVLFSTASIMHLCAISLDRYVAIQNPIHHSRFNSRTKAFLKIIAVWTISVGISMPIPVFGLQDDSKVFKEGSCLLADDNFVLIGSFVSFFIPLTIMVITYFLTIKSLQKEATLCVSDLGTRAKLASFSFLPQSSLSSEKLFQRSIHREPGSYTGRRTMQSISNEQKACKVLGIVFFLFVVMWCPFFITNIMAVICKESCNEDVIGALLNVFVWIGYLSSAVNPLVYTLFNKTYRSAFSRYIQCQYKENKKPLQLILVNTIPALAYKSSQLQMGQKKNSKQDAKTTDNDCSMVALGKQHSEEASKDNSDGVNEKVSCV

[13] = target: Kinase, protein, PKCz (h) (Homo sapiens, UniProt Q05513); test: in vitro selectivity profile; assay type: biochemical
Kinase, protein, PKCz (h), sequence (Q05513 whole entry): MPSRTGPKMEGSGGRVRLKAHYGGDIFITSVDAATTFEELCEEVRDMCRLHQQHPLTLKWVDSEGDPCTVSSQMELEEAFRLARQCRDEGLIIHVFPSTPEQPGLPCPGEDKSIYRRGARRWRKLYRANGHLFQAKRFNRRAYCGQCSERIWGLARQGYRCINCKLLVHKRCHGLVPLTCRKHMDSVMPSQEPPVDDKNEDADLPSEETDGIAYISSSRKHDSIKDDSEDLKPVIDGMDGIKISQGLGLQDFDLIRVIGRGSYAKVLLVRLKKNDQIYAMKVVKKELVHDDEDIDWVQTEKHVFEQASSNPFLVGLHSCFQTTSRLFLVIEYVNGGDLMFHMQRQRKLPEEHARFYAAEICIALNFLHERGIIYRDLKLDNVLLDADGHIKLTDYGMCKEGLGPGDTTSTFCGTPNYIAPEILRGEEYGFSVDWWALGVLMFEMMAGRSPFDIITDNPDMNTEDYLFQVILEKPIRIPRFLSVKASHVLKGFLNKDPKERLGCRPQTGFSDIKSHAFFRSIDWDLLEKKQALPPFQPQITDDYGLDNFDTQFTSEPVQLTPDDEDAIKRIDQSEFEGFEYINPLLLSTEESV

[14] = target: hKv7.2 potassium channels (Homo sapiens, UniProt O43526); test: whole-cell patch clamp, hKv7.2 in CHO cells; assay type: cell-based; conditions: depolarizing pulse +20 mV from holding potential −80 mV
[15] = target: human α2β2γ2 GABAA receptors (Homo sapiens, UniProt P18507+P47869+P47870); test: submaximal GABA currents in Ltk cells; assay type: cell-based
human α2β2γ2 GABAA receptors, sequence (P47869 29-451): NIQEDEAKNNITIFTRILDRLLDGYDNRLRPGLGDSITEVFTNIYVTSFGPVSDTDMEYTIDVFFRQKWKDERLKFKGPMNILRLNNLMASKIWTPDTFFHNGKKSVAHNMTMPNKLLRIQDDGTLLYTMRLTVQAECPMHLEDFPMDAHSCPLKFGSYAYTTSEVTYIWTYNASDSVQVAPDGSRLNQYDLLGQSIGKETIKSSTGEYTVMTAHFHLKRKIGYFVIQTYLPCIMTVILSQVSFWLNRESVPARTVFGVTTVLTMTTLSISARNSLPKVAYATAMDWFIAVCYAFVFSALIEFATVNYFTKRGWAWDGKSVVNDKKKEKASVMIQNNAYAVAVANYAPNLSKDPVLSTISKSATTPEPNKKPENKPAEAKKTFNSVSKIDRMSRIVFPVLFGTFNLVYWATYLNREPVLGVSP
human α2β2γ2 GABAA receptors, sequence (P47870 25-512 limits assumed): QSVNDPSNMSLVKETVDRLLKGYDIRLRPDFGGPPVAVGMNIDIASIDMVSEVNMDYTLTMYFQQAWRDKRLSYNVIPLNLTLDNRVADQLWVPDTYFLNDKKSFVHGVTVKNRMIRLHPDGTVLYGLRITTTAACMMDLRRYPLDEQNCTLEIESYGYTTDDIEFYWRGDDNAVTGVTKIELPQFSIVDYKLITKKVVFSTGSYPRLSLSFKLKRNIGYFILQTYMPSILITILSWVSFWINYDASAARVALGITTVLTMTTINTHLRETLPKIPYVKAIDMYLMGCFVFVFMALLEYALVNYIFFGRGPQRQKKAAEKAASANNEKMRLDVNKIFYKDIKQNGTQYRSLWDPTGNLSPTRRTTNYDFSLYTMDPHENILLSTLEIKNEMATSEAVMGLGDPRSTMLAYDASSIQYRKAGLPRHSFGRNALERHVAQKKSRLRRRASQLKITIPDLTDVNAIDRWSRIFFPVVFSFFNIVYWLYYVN
human α2β2γ2 GABAA receptors, sequence (P18507 40-475): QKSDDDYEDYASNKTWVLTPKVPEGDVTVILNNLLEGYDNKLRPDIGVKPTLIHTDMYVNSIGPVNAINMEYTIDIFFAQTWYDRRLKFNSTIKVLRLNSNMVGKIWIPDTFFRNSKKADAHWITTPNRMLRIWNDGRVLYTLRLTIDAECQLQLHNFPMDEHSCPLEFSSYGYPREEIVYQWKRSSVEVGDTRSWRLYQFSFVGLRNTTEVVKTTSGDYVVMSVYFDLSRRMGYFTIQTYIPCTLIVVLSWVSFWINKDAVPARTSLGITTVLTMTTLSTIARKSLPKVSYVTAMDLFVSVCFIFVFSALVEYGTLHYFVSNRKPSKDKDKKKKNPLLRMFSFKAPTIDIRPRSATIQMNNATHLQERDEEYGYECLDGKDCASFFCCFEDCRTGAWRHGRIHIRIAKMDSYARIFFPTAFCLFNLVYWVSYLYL

[16] = system: GABA A, BDZ, alpha 6 site; test: in vitro selectivity profile; assay type: binding; conditions: eslicarbazepine 400 μmol/L
[17] = system: Serotonin, 5HT3; test: in vitro selectivity profile; assay type: binding; conditions: eslicarbazepine 400 μmol/L
[18] = system: Calcium channel, type N; test: in vitro selectivity profile; assay type: binding; conditions: eslicarbazepine 400 μmol/L
[19] = system: Somatostatin, nonselective; test: in vitro selectivity profile; assay type: binding; conditions: eslicarbazepine 400 μmol/L
[20] = system: Neurokinin, NK3 (NKB); test: in vitro selectivity profile; assay type: binding; conditions: eslicarbazepine 400 μmol/L
[21] = system: Sigma 1; test: in vitro selectivity profile; assay type: binding; conditions: eslicarbazepine 400 μmol/L
[22] = system: Oxygenase, COX-2; test: in vitro selectivity profile; assay type: biochemical; conditions: eslicarbazepine 400 μmol/L
[23] = target: Dopamine, D1 (h) (Homo sapiens, UniProt P21728); test: in vitro selectivity profile; assay type: binding
[24] = target: Adenosine, A2A (h) (Homo sapiens, UniProt P29274); test: in vitro selectivity profile; assay type: binding
[25] = system: Oxidase, MAO-A, central; test: in vitro selectivity profile; assay type: biochemical; conditions: eslicarbazepine 400 μmol/L
[26] = system: Purinergic, P2Y; test: in vitro selectivity profile; assay type: binding; conditions: eslicarbazepine 400 μmol/L
[27] = system: GABA, chloride, TBOB site; test: in vitro selectivity profile; assay type: binding; conditions: eslicarbazepine 400 μmol/L
[28] = target: Opioid, delta 2 (h) (Homo sapiens, UniProt P41143); test: in vitro selectivity profile; assay type: binding
Opioid, delta 2 (h), sequence (P41143 whole entry): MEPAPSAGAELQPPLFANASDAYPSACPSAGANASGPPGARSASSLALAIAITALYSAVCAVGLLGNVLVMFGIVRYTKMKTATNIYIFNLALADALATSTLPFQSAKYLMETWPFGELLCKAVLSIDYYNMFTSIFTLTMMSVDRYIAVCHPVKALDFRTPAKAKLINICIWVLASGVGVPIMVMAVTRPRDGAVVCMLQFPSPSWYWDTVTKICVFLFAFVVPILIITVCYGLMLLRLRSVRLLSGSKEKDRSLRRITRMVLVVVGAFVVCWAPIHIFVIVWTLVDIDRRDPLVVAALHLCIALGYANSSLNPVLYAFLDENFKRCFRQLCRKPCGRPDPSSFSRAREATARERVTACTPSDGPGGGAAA

[29] = target: Dopamine transporter (h) (Homo sapiens, UniProt Q01959); test: in vitro selectivity profile; assay type: binding
[30] = system: Nicotinic, neuronal [a-BnTx insensitive] (h); test: in vitro selectivity profile; assay type: binding, human; conditions: eslicarbazepine 400 μmol/L
[31] = system: Glutamate, MK-801 site; test: in vitro selectivity profile; assay type: binding; conditions: eslicarbazepine 400 μmol/L
[32] = system: Glycine, strychnine-sensitive; test: in vitro selectivity profile; assay type: binding; conditions: eslicarbazepine 400 μmol/L
[33] = system: Adenosine, A2; test: in vitro selectivity profile; assay type: binding; conditions: eslicarbazepine 400 μmol/L
[34] = system: Glutamate, NMDA agonist site; test: in vitro selectivity profile; assay type: binding; conditions: eslicarbazepine 400 μmol/L
[35] = system: Opioid, kappa 1; test: in vitro selectivity profile; assay type: binding; conditions: eslicarbazepine 400 μmol/L
[36] = target: Neuropeptide, NPY2 (h) (Homo sapiens, UniProt P49146); test: in vitro selectivity profile; assay type: binding
Neuropeptide, NPY2 (h), sequence (P49146 whole entry): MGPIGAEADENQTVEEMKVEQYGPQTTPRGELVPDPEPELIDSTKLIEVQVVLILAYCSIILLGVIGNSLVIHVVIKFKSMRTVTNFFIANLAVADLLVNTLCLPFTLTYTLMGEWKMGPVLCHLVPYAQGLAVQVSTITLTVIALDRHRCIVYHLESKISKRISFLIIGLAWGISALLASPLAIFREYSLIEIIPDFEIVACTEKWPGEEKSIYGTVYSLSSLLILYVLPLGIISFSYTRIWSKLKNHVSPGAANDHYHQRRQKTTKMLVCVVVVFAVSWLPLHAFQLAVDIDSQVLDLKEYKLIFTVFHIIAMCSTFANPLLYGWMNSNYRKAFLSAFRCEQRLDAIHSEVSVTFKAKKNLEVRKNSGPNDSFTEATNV

[37] = target: Kinase, protein, CK1d (CSNK1D) (h) (Homo sapiens, UniProt P48730); test: in vitro selectivity profile; assay type: biochemical
Kinase, protein, CK1d (CSNK1D) (h), sequence (P48730 whole entry): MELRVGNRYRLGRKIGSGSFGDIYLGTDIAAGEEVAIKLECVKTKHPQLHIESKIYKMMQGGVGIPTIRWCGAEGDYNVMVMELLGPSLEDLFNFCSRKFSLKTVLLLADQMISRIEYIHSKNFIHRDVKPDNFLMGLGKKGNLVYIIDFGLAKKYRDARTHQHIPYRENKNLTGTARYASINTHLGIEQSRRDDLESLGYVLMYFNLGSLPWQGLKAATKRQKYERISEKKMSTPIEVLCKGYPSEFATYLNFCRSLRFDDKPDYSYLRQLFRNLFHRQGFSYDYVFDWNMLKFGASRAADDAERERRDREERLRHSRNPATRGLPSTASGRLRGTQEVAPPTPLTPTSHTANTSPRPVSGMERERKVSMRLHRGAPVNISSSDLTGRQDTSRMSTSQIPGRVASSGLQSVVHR

[38] = system: Inositol triphosphate, IP3; test: in vitro selectivity profile; assay type: binding; conditions: eslicarbazepine 400 μmol/L
[39] = cited from earlier work
[40] = target: Adrenergic, alpha2A (h) (Homo sapiens, UniProt P08913); test: in vitro selectivity profile; assay type: binding
Adrenergic, alpha2A (h), sequence (P08913 whole entry): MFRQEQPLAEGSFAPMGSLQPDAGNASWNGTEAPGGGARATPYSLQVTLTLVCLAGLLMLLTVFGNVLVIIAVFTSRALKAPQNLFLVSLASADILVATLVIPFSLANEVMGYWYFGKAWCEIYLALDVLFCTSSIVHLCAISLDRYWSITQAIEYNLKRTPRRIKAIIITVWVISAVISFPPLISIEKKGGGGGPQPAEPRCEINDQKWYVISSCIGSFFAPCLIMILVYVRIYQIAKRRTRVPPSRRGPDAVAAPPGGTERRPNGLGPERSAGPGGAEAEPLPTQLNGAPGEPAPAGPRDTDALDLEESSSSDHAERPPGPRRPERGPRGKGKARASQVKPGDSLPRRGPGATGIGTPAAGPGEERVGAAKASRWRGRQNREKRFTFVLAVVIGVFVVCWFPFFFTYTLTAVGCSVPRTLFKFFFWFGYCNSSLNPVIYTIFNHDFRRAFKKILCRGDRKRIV

[41] = system: GABA A, agonist site; test: in vitro selectivity profile; assay type: binding; conditions: eslicarbazepine 400 μmol/L
[42] = target: Serotonin transporter (h) (Homo sapiens, UniProt P31645); test: in vitro selectivity profile; assay type: binding
[43] = system: persistent Na+ current (INaP); conditions: 300 μmol/L, ref Döser et al. [2013a], [2014], cited from earlier work

`NC(=O)N1c2ccccc2C[C@H](O)c2ccccc21` [eslicarbazepine] gave an inhibition at 400 µM [1] of 0%, an IC50 [2] of 7.84 mM and an inhibition at 400 µM [3] of 9.33%. For the same molecule, the inhibition at 400 µM [4] was 2.05%, the inhibition at 400 µM [5] was 5.86% and the inhibition at 400 µM [6] was 4.94%. The “binding to nonspecific proteins (protein binding)” value [7] was roughly 30%, the “% inhibition” value [8] was 0.0% and the inhibition at 400 µM [9] was 0%. The “% inhibition” value [10] was 17.43%, the inhibition at 400 µM [11] was 0.4% and the inhibition at 400 µM [12] was 19.2%. For the same molecule, the inhibition at 400 µM [13] was 1.48%, the “IC50, KV7.2 outward currents” value [14] was “no inhibitory effect” and the “GABA inward current stimulation, α2β2γ2, Mean ± SEM” value ([15]; 50 μmol/L) was 91.6 ± 2.7. For the same molecule, the “GABA inward current stimulation, α2β2γ2, Mean ± SEM” value ([15]; 100 μmol/L) was 97.0 ± 2.7, the “GABA inward current stimulation, α2β2γ2, Mean ± SEM” value ([15]; 250 μmol/L) was 88.6 ± 3.2 and the “effect on submaximal α2β2γ2 GABA currents” value ([15]; 250 μmol/L) was “slight decrease”. The “GABA inward current stimulation, α2β2γ2, Mean ± SEM” value ([15]; 500 μmol/L) was 89.8 ± 4.0, the “effect on submaximal α2β2γ2 GABA currents” value ([15]; 50–500 μmol/L, exception at 250 μmol/L) was “did not significantly change submaximal GABA currents” and the “% inhibition” value [16] was 0.0%. The “% inhibition” value [17] was 10.41%, the “% inhibition” value [18] was 23.34% and the “% inhibition” value [19] was 0.0%. For the same molecule, the “% inhibition” value [20] was 0.0%, the “% inhibition” value [21] was 28.43% and the “% inhibition” value [22] was 0.0%. For the same molecule, the inhibition at 400 µM [23] was 6.85%, the inhibition at 400 µM [24] was 6.81% and the “% inhibition” value [25] was 15.98%. The “% inhibition” value [26] was 0.0%, the “% inhibition” value [27] was 38.95% and the inhibition at 400 µM [28] was 7.91%. The inhibition at 400 µM [29] was 2.85%, the “% inhibition” value [30] was 23.46% and the “% inhibition” value [31] was 15.45%. The “% inhibition” value [32] was 25.95%, the “% inhibition” value [33] was 0.0% and the “% inhibition” value [34] was 0.0%. The “% inhibition” value [35] was 5.39%, the inhibition at 400 µM [36] was 8.43% and the inhibition at 400 µM [37] was 5.18%. The “% inhibition” value [38] was 0.45%, the “CSF Cmax eslicarbazepine levels” value ([39]; 1200 mg QD oral ESL, ref Nunes et al. [2013]) was 30 µM and the “share of circulating active moieties after oral ESL” value ([39]; humans, ref Almeida and Soares-da-Silva [2007]) was roughly 95%. For the same molecule, the “peak plasma concentrations of eslicarbazepine” value ([39]; oral ESL 1200 mg QD, ref Perucca et al. [2011]) was 90 µmol/L, the inhibition at 400 µM [40] was 15.6% and the “% inhibition” value [41] was 0.0%. For the same molecule, the inhibition at 400 µM [42] was 0%, the “INaP in Scn1b null mice” value ([43]; Scn1b null mice) was “did not cause a paradoxical upregulation of INaP” and the “maximal INaP conductance and firing rate” value ([43]; wild-type mice) was “significantly reduce maximal INaP conductance and efficiently decrease the firing rate”.
